Experiments:
[1] = target: T1, c-GMP-stimulated PDE II (UniProt P14099); assay: Inhibition of the phosphodiesterases in vitro: PDE II; format: biochemical, porcine or bovine (heart myocardium); settings: 3HcAMP substrate, 10^-6 mol/l cGMP added
T1 sequence (P14099 1-921): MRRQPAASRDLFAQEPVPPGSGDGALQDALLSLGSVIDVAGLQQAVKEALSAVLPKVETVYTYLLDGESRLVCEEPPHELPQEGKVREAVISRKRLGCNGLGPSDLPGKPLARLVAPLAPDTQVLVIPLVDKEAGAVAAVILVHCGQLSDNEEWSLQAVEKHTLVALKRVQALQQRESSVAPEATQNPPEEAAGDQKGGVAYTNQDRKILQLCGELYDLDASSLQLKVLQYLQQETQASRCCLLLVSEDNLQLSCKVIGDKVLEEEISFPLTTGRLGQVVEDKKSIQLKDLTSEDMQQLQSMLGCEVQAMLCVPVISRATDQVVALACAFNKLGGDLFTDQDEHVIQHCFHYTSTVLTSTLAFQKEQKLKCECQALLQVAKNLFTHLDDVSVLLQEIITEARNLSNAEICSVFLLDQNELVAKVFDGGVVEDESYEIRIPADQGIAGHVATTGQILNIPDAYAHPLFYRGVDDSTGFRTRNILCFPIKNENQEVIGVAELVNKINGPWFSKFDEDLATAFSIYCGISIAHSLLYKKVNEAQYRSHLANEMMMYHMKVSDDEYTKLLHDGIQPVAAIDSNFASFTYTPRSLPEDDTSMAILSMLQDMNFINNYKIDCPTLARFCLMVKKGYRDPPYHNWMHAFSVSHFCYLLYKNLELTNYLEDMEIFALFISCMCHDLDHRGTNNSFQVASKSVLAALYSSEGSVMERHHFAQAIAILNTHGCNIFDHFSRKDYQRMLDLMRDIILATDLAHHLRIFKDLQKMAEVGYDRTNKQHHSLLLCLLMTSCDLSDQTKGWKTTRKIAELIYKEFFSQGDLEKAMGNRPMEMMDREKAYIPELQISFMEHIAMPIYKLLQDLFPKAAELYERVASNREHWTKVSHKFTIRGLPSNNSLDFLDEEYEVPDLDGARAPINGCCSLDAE
Description: (§1) The c-GMP-stimulated PDE II, the c-GMP-inhibited PDE III and the cAMP-specific PDE IV were isolated either from porcine or bovine heart myocardium. The Ca^2+-calmodulin-stimulated PDE I was isolated from porcine aorta, porcine brain or, preferably, from bovine aorta. The c-GMP-specific PDE V was obtained from porcine small intestine, porcine aorta, human platelets and, preferably, from bovine aorta. Purification was carried out by anion exchange chromatography over MonoQ^R Pharmacia, essentially following the method of M. Hoey and Miles D. Houslay, Biochemical Pharmacology, Vol. 40, 193-202 (1990) and C. Lugman et al. Biochemical Pharmacology Vol. 35 1743-1751 (1986).
(§2) The enzyme activity is determined using a test mixture of 100 μl in 20 mM Tris/HCl buffer pH 7.5 containing 5 mM MgCl2, 0.1 mg/ml of bovine serum albumin and either 800 Bq ^3HcAMP or ^3HcGMP. The final concentration of the nucleotides in question is 10^−6 mol/l. The reaction is initiated by addition of the enzyme and the amount of enzyme is such that during the incubation time of 30 min, approximately 50% of the substrate is converted. To test the cGMP-stimulated PDE II, ^3HcAMP is used as substrate and 10^−6 mol/l of non-labelled cGMP are added to the mixture. To test the Ca-calmodulin-dependent PDE I, 1 μM of CaCl2 and 0.1 μM of calmodulin are added to the reaction mixture. The reaction is quenched by addition of 100 μL of acetonitrile, containing 1 mM cAMP and 1 mM AMP. 100 μl of the reaction mixture are separated by HPLC and the cleavage products are determined quantitatively on-line using a continuous scintillation counter. The substance concentration measured is the concentration at which the reaction rate is reduced by 50%. Additionally, the “phodiesterase [^3H] cAMP-SPA enzyme assay” and the “phosphodiesterase [^3H] cGMP-SPA enzyme assay” from Amersham Life Science were used for testing. The test was carried out according to the test protocol of the manufacturer. To determine the activity of PDE2, the [^3H] cAMP-SPA assay was used, and 10^−6 M cGMP were added to the reaction mixture to activate the enzyme. To measure PDE1, 10^−7 M calmodulin and 1 μM CaCl2 were added to the reaction mixture. PDE5 was measured using the [^3H] cGMP-SPA assay.

[2] = target: T2, c-GMP-specific PDE V (Bos taurus, UniProt Q28156); assay: Inhibition of the phosphodiesterases in vitro: PDE V; format: biochemical, porcine, human platelets or, preferably, bovine aorta; settings: 3HcGMP substrate 10^-6 mol/l
T2 construct: porcine aorta, human platelets and, preferably, from bovine aorta; from tissue; host or cells: porcine small intestine, porcine aorta, human platelets or, preferably, bovine aorta
Description: as §1, §2

[3] = test system: T3, Ca2+-calmodulin-stimulated PDE I; assay: Inhibition of the phosphodiesterases in vitro: PDE I; format: biochemical, porcine or bovine (preferably bovine aorta); settings: 1 μM CaCl2 and 0.1 μM calmodulin added; substrate 10^-6 mol/l
T3 construct: The Ca^2+-calmodulin-stimulated PDE I was isolated from porcine aorta, porcine brain or, preferably, from bovine aorta
Description: as §1, §2

Row | melting point | IC50 [1] | IC50 [2] | IC50 [3] | Structure (SMILES)
1 | – | 100 nM | > 1000 nM | 100 nM | CC(CCCc1ccccc1)n1nnc2c(=O)[nH]c(Cc3ccc(S(=O)(=O)NCCO)cc3)nc21 (stereo not shown) [Example 23, N-(2-Hydroxyethyl)-4-[3-(1-methyl-4-phenyl-butyl)-7-oxo-6,7-dihydro-3H-[1,2,3]triazolo[4,5-d]pyrimidin-5-ylmethyl]benzenesulphonamide]
2 | – | 300 nM | ≥ 1000 nM | 500 nM | CC(O)C(CCCc1ccccc1)n1nnc2c(=O)[nH]c(Cc3ccc4c(c3)OCO4)nc21 (stereo not shown) [Example 30, 5-Benzo[1,3]dioxol-5-ylmethyl-3-[1-(1-hydroxy-ethyl)-4-phenyl-butyl]-3,6-dihydro-[1,2,3]triazolo[4,5-d]pyrimidin-7-one]
3 | – | 40 nM | > 1000 nM | > 1000 nM | COc1ccc(Cc2nc3c(nnn3C(CCCc3ccccc3)C(C)O)c(=O)[nH]2)cc1OC (stereo not shown) [Example 31, 5-(3,4-Dimethoxy-benzyl)-3-[1-(1-hydroxy-ethyl)-4-phenyl-butyl]-3,6-dihydro-[1,2,3]triazolo[4,5-d]pyrimidin-7-one]

The remaining lines, values behind:

Row | Structure (SMILES) | melting point | IC50 [1] | IC50 [2] | IC50 [3]
4 | CC(CCCc1ccccc1)n1nnc2c(=O)[nH]c(Cc3ccccc3)nc21 (stereo not shown) [Example 4, 5-Benzyl-3-(1-methyl-4-phenyl-butyl)-3,6-dihydro-[1,2,3]triazolo[4,5-d]pyrimidin-7-one] | 112 °C | – | – | –
5 | COc1ccc(Cc2nc3c(nnn3C(C)CCCc3ccccc3)c(=O)[nH]2)cc1OC (stereo not shown) [Example 5, 5-(3,4-Dimethoxy-benzyl)-3-(1-methyl-4-phenyl-butyl)-3,6-dihydro-[1,2,3]triazolo-[4,5-d]pyrimidin-7-one] | – | 80 nM | 500 nM | 500 nM
6 | CNS(=O)(=O)c1ccc(Cc2nc3c(nnn3C(C)CCCc3ccccc3)c(=O)[nH]2)cc1 (stereo not shown) [Example 19, N-Methyl-4-[3-(1-methyl-4-phenyl-butyl)-7-oxo-6,7-dihydro-3H-[1,2,3]-triazolo-[4,5-d]pyrimidin-5-ylmethyl]-benzenesulphonamide] | – | 200 nM | > 1000 nM | 200 nM

Source: patent US6458796B1, “Dihydro-[1,2,3]triazolo-[4,5-d]pyrimidin-7-one” (Bayer Aktiengesellschaft, priority 1998, dated 2002)
